Source: patent US10189828B2, “1-methylpyrazole-piperazine compounds having multimodal activity against pain” (LABORATORIOS DEL DR. ESTEVE S.A., priority 2014, dated 2019)

Tested on: human σ1 receptor and human μ-opioid receptor
Assay: μ and σ1 dual binding: human σ1 receptor radioligand assay ([3H](+)-pentazocine, transfected HEK-293 membranes) and human μ-opioid receptor radioligand assay ([3H]-DAMGO, transfected CHO-K1 membranes)
Parameters: key to μ and σ1 dual binding: +: Both Ki-μ and Ki-σ1>=500 nM; ++: One Ki<500 nM while the other Ki is >=500 nM; +++: Both Ki-μ and Ki-σ1<500 nM; ++++: Both Ki-μ and Ki-σ1<100 nM
Details: for Ki: one combined class for Ki-μ and Ki-σ1

Which “μ and σ1 dual binding” value does the source give for Cn1nccc1C(c1cccc(C(F)(F)F)n1)N1CCN(CCc2ccccc2)CC1 (stereo not shown) [Example 10, 1-((1-methyl-1H-pyrazol-5-yl)(6-(trifluoromethyl)pyridin-2-yl)methyl)-4-phenethylpiperazine] here?
Its value is “++”.

With Cn1nccc1C(c1ccccc1)N1CCN(CCc2cccc(N)n2)CC1 (stereo not shown) [Example 40, 6-(2-(4-((1-Methyl-1H-pyrazol-5-yl)(phenyl)methyl)piperazin-1-yl)ethyl)pyridin-2-amine] as the molecule, how does the Ki read?
The Ki was ≥ 500 nM.

Cn1nccc1C(c1ccc(F)cn1)N1CCN(CCc2ccccc2F)CC1 (stereo not shown) [Example 26, 1-(2-fluorophenethyl)-4-((5-fluoropyridin-2-yl)(1-methyl-1H-pyrazol-5-yl)methyl)piperazine] was tested. Which “μ and σ1 dual binding” value did it give?
The value was “++”.

Which Ki does the source give for Cn1nccc1C(c1ccccc1)N1CCN(CCc2csc(NC(=O)OC(C)(C)C)n2)CC1 (stereo not shown) [Example 25, tert-butyl 4-(2-(4-((1-methyl-1H-pyrazol-5-yl)(phenyl)methyl)piperazin-1-yl)ethyl)thiazol-2-ylcarbamate] here?
Its Ki is ≥ 500 nM.
